Structures can show the parent of a compound that is named as a salt.
molecular target: T1, human V1a receptor (Homo sapiens, UniProt P37288); experiment: human V1a receptor binding studies (3H-Vasopressin, SPA beads); details: membranes of HEK293 cells transiently transfected with human V1a receptor, Ki calculated by Cheng-Prussoff equation, read-out: pKi hV1a (converted)
T1 construct: expressed in transfected cells; host or cells: HEK293 cells, transiently transfected; membrane preparation
Method: The human V1a receptor was cloned by RT-PCR from total human liver RNA. The coding sequence was subcloned in an expression vector after sequencing to confirm the identity of the amplified sequence. […] Cell membranes were prepared from HEK293 cells transiently transfected with the expression vector and grown in 20 liter fermenters with the following protocol.
50 g of cells were resuspended in 30 ml freshly prepared ice cold Lysis buffer (50 mM HEPES, 1 mM EDTA, 10 mM MgCl2 adjusted to pH=7.4+complete cocktail of protease inhibitor (Roche Diagnostics)); homogenized with Polytron for 1 min; and sonicated on ice for 2×2 minutes at 80% intensity (Vibracell sonicator). The preparation was centrifuged 20 min at 500 g at 4° C., the pellet was discarded and the supernatant centrifuged 1 hour at 43,000 g at 4° C. (19,000 rpm). The pellet was resuspended in 12.5 ml Lysis buffer+12.5 ml Sucrose 20% and homogenized using a Polytron for 1-2 min. The protein concentration was determined by the Bradford method and aliquots were stored at −80° C. until use. For binding studies 60 mg Yttrium silicate SPA beads (Amersham) were mixed with an aliquot of membrane in binding buffer (50 mM Tris, 120 mM NaCl, 5 mM KCl, 2 mM CaCl2, 10 mM MgCl2) for 15 minutes with mixing. 50 ul of bead/membrane mixture was then added to each well of a 96 well plate, followed by 50 ul of 4 nM 3H-Vasopressin (American Radiolabeled Chemicals). For total binding measurement 100 ul of binding buffer were added to the respective wells, for non-specific binding 100 ul of 8.4 mM cold vasopressin and for compound testing 100 ul of a serial dilution of each compound in 2% DMSO. The plate was incubated Ih at room temperature, centrifuged 1 min at 1000 g and counted on a Packard Top-Count. Non-specific binding counts were subtracted from each well, and data was normalized to the maximum specific binding set at 100%. To calculate an IC 50 the curve was fitted using a non-linear regression model (XLfit), and the Ki was calculated using the Cheng-Prussoff equation.

T1 sequence (P37288 whole entry): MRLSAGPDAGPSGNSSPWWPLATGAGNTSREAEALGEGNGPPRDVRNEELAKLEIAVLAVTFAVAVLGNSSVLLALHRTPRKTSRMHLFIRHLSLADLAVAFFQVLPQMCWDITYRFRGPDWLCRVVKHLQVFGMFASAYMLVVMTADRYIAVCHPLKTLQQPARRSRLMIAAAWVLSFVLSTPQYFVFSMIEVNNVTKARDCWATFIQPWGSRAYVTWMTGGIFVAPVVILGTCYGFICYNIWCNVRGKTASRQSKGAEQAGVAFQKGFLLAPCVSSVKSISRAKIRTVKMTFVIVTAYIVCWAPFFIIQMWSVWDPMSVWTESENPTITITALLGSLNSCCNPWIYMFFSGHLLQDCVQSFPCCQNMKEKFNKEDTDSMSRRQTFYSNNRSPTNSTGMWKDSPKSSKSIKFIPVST

| Structure (SMILES) | Ki |
| --- | --- |
| CCN(CC)C(=O)Cn1cc(C(=O)N2CCC(N3C(=O)Cc4ccccc43)CC2)c2ccc(Cl)cc21 [Example 5, 2-{6-Chloro-3-[4-(2-oxo-2,3-dihydro-indol-1-yl)-piperidine-1-carbonyl]-indol-1-yl}-N,N-diethyl-acetamide] | 11.7 nM |
| CS(=O)(=O)NCCn1cc(C(=O)N2CCC(N3C(=O)Cc4ccccc43)CC2)c2ccc(Cl)cc21 [Example 6, N-[2-(6-Chloro-3-{[4-(2-oxo-2,3-dihydro-1H-indol-1-yl)piperidin-1-yl]carbonyl}-1H-indol-1-yl)ethyl]methanesulfonamide] | 3.16 nM |
| CNC(=O)Cn1cc(C(=O)N2CCC(n3c(=O)oc4ccccc43)CC2)c2ccc(Cl)cc21 [Example 10, 2-{6-Chloro-3-[4-(2-oxo-benzooxazol-3-yl)-piperidine-1-carbonyl]-indol-1-yl}-N-methyl-acetamide] | 6.76 nM |
| CNC(=O)Cn1cc(C(=O)N2CCC(N3C(=O)Cc4ccccc43)CC2)c2ccc(Cl)cc21 [Example 3, 2-{6-Chloro-3-[4-(2-oxo-2,3-dihydro-indol-1-yl)-piperidine-1-carbonyl]-indol-1-yl}-N-methyl-acetamide] | 1.82 nM |
| O=C(c1cn(Cc2cc(F)cc(F)c2)c2cc(Cl)ccc12)N1CCC(N2C(=O)Cc3ccccc32)CC1 [Example 2, 1-{1-[6-Chloro-1-(3,5-difluoro-benzyl)-1H-indole-3-carbonyl]-piperidin-4-yl}-1,3-dihydro-indol-2-one] | 2.57 nM |
| CNCCn1cc(C(=O)N2CCC(N3C(=O)Cc4ccccc43)CC2)c2ccc(Cl)cc21 [Example 14, 1-{1-[6-Chloro-1-(2-methylamino-ethyl)-1H-indole-3-carbonyl]-piperidin-4-yl}-1,3-dihydro-indol-2-one hydrochloride] | 6.61 nM |
| CN1CCn2c(c(C(=O)N3CCC(n4nnc5ccccc54)CC3)c3ccc(Cl)cc32)C1 [Example 18, (4-Benzotriazol-1-yl-piperidin-1-yl)-(7-chloro-2-methyl-1,2,3,4-tetrahydro-pyrazino[1,2-a]indol-10-yl)-methanone] | 20.9 nM |
| CN(C)C(=O)Cn1cc(C(=O)N2CCC(N3C(=O)Cc4ccccc43)CC2)c2ccc(Cl)cc21 [Example 4, 2-(6-Chloro-3-{[4-(2-oxo-2,3-dihydro-1H-indol-1-yl)piperidin-1-yl]carbonyl}-1H-indol-1-yl)-N,N-dimethylacetamide] | 1.29 nM |
| O=C(c1c[nH]c2cc(Cl)ccc12)N1CCC(N2C(=O)Cc3ccccc32)CC1 [Example 1, 1-[1-(6-Chloro-1H-indole-3-carbonyl)-piperidin-4-yl]-1,3-dihydro-indol-2-one] | 8.91 nM |
| Cc1[nH]c2cc(Cl)ccc2c1C(=O)N1CCC(N2C(=O)Cc3ccccc32)CC1 [Example 8, 1-[1-(6-Chloro-2-methyl-1H-indole-3-carbonyl)-piperidin-4-yl]-1,3-dihydro-indol-2-one] | 12.6 nM |
| CC(=O)NCCn1cc(C(=O)N2CCC(N3C(=O)Cc4ccccc43)CC2)c2ccc(Cl)cc21 [Example 7, N-[2-(6-Chloro-3-{[4-(2-oxo-2,3-dihydro-1H-indol-1-yl)piperidin-1-yl]carbonyl}-1H-indol-1-yl)ethyl]acetamide] | 11.7 nM |
| CN(C)C(=O)Cn1cc(C(=O)N2CCC(n3nnc4ccccc43)CC2)c2ccc(Cl)cc21 [Example 13, 2-(3-{[4-(1H-Benzotriazol-1-yl)piperidin-1-yl]carbonyl}-6-chloro-1H-indol-1-yl)-N,N-dimethylacetamide] | 14.1 nM |
| CN(C)CCn1cc(C(=O)N2CCC(N3C(=O)Cc4ccccc43)CC2)c2ccc(Cl)cc21 [Example 15, 1-{1-[6-Chloro-1-(2-dimethylamino-ethyl)-1H-indole-3-carbonyl]-piperidin-4-yl}-1,3-dihydro-indol-2-one] | 2.09 nM |
| CN(C)CCn1cc(C(=O)N2CCC(n3nnc4ccccc43)CC2)c2ccc(Cl)cc21 [Example 17, (4-Benzotriazol-1-yl-piperidin-1-yl)-[6-chloro-1-(2-dimethylamino-ethyl)-1H-indol-3-yl]-methanone] | 19.5 nM |

From US20080161315A1, “INDOLES” (priority 2006, published 2008)
